Converted amounts (≈) assume the structure as drawn. Numbered stars: 1 amine (or outer) side, 2 acyl side, 3 side chain; on linkers, the order of the positions; unused ones are H or OH. Bridge positions count the residues as written; N and C are the ends. Square brackets hold non-standard residues; d marks the D form. Peptide text beside a SMILES is read from it. TBMB = c1c(C[*:1])cc(C[*:3])cc1C[*:2]
What was measured:
Experiment in all cases: microbe, parasite or virus in culture
B. subtilis ATCC 6633 = test system: B. subtilis ATCC 6633
Description: (§1) The L-peptides identified from five different phage display libraries were catalogued as described previously and selected sequences were synthesized in D-enantiomeric form by SPPS for further investigation in several biological assays.
(§2) MICs were determined according to a 96-well microdilution protocol outlined by the Clinical and Laboratory Standard Institute (CLSI) guideline with modifications for peptide antibiotics reported by Wiegand et al.^35 Two-fold serial peptide dilutions were performed to go from 2560 μg/ml to 5 μg/ml in0.2% BSA and 0.01% acetic acid buffer in 96-well polypropylene plates (COSTAR, #3879). Dilution of bacterial suspensions (1:200) of different bacterial strains that were grown until 0.5 McFarland standard were prepared to obtain a final inoculum concentration of 8×10^5 CFU/ml in Mueller-Hinton broth.

E. coli ATCC 25992 = test system: E. coli ATCC 25992
Description: as §1, §2

E. faecalis ATCC 29121 = test system: E. faecalis ATCC 29121
Description: as §1, §2

[1] = test system: Methicillin-resistant S. aureus (MRSA) ATCC 43300
Description: as §1, §2

S. aureus ATCC 6538 = test system: S. aureus ATCC 6538
Description: as §1, §2

[2] = test system: high level vancomycin resistant E. faecium (vanA) ATCC 51559
Description: as §1, §2

[3] = test system: low level vancomycin resistant E. faecium (vanB) ATCC 51299
Description: as §1, §2

[4] = Table 5, low level vancomycin resistant E. faecium ATCC 51299
[5] = Table 6, high level vancomycin resistant E. faecium ATCC51559
[6] = Table 6, low level vancomycin resistant E. faecium ATCC51299

| MIC B. subtilis (B. subtilis ATCC 6633; ATCC 6633) | MIC E. coli (E. coli ATCC 25992; ATCC 25992) | MIC E. faecalis (E. faecalis ATCC 29121; ATCC 29121) | MIC MRSA ([1]; ATCC 43300) | MIC S. aureus (S. aureus ATCC 6538; ATCC 6538) | MIC VRE (vanA) ([2]; ATCC 51559) | MIC VRE (vanB) [3, 4] | Structure (SMILES) | MIC B. subtilis (B. subtilis ATCC 6633; Table 6, B. subtilis ATCC6633) | MIC E. coli (E. coli ATCC 25992; Table 6, E. Coli ATCC25992) | MIC E. faecalis (E. faecalis ATCC 29121; Table 6, E. faecalis ATCC29121) | MIC MRSA ([1]; Table 6, MRSA ATCC43300) | MIC S. aureus (S. aureus ATCC 6538; Table 6, S. aureus ATCC6538) | MIC VRE (vanA) [2, 5] | MIC VRE (vanB) [3, 6] |
| --- | --- | --- | --- | --- | --- | --- | --- | --- | --- | --- | --- | --- | --- | --- |
| 128 µg/mL (≈ 171 µM) | >256 µg/mL | >256 µg/mL | >256 µg/mL | 128 µg/mL (≈ 171 µM) | >256 µg/mL | >256 µg/mL | CC(C)C[C@@H](NC(=O)[C@H](N)C(C)C)C(=O)N[C@@H](C(=O)N[C@H](CCCNC(=N)N)C(=O)N[C@H](CS)C(=O)N[C@H](CS)C(=O)NCC(N)=O)[C@H](C)O [P6, VLTRCCG] (H-[dV][dL][dT][dR][dC][dC]G-NH2) | – | – | – | – | – | – | – |
| 32 µg/mL (≈ 29.7 µM) | >256 µg/mL | 64 µg/mL (≈ 59.5 µM) | 64 µg/mL (≈ 59.5 µM) | 64 µg/mL (≈ 59.5 µM) | >256 µg/mL | >256 µg/mL | CC(C)C[C@H]1NC(=O)[C@H](N)CSSC[C@H](C(N)=O)NC(=O)[C@@H](Cc2c[nH]c3ccccc23)NC(=O)[C@@H](CCCCN)NC(=O)[C@@H](CCC(=O)O)NC(=O)CNC(=O)[C@@H](CC(C)C)NC(=O)[C@@H](CCCCN)NC1=O [P9, CLKLGEKWC] (H-[dC][dL][dK][dL]G[dE][dK][dW][dC]-NH2; disulfide 1-9) | – | – | – | – | – | – | – |
| – | – | – | – | – | – | – | CC[C@@H](C)[C@H]1NC(=O)[C@@H](C(C)C)NC(=O)[C@H]2CSCc3cc(cc(c3)CSC[C@H](C(N)=O)NC(=O)[C@@H](CC(=O)O)NC1=O)CSC[C@@H](N)C(=O)N[C@H](CC(C)C)C(=O)N[C@H](CO)C(=O)N[C@H](CCC(N)=O)C(=O)N[C@H](Cc1ccccc1)C(=O)N2 [P17, CLSQFCVIDC] (H-[dC][dL][dS][dQ][dF][dC][dV][dI][dD][dC]-NH2; linker 1-6-10 via TBMB) | 128 µg/mL (≈ 103 µM) | >256 µg/mL | >256 µg/mL | >256 µg/mL | 128 µg/mL (≈ 103 µM) | >256 µg/mL | >256 µg/mL |
| – | – | – | – | – | – | – | CC(C)C[C@H]1NC(=O)[C@@H](CCC(N)=O)NC(=O)[C@@H](CO)NC(=O)[C@@H](CO)NC(=O)[C@@H](CO)NC(=O)[C@H]2CSCc3cc(cc(c3)CSC[C@H](C(N)=O)NC(=O)[C@@H](Cc3ccc(O)cc3)NC1=O)CSC[C@@H](N)C(=O)N[C@H]([C@H](C)O)C(=O)N[C@H](CCCNC(=N)N)C(=O)N[C@H](C(C)C)C(=O)N2 [P19, CTRVCSSSQLYC] (H-[dC][dT][dR][dV][dC][dS][dS][dS][dQ][dL][dY][dC]-NH2; linker 1-5-12 via TBMB) | 128 µg/mL (≈ 87.5 µM) | >256 µg/mL | >256 µg/mL | >256 µg/mL | 128 µg/mL (≈ 87.5 µM) | >256 µg/mL | >256 µg/mL |
| 32 µg/mL (≈ 42.8 µM) | >256 µg/mL | >256 µg/mL | >256 µg/mL | 64 µg/mL (≈ 85.6 µM) | >256 µg/mL | >256 µg/mL | CC(C)C[C@@H](NC(=O)[C@@H](Cc1ccccc1)NC(=O)CNC(=O)[C@H](N)[C@H](C)O)C(=O)N[C@@H](C(=O)N[C@H](CC(N)=O)C(=O)N[C@@H](C(N)=O)C(C)C)C(C)C [P7, TGFLVNV] (H-[dT]G[dF][dL][dV][dN][dV]-NH2) | – | – | – | – | – | – | – |
| – | – | – | – | – | – | – | CC(C)[C@H]1NC(=O)CNC(=O)[C@@H](Cc2ccccc2)NC(=O)[C@H]2CSCc3cc(cc(c3)CSC[C@H](C(N)=O)NC(=O)[C@@H](CO)NC(=O)[C@@H](CCC(N)=O)NC1=O)CSC[C@@H](N)C(=O)NCC(=O)N[C@H](C)C(=O)N[C@H](CCC(N)=O)C(=O)NCC(=O)N2 [P20, CGAQGCFGVQSC] (H-[dC]G[dA][dQ]G[dC][dF]G[dV][dQ][dS][dC]-NH2; linker 1-6-12 via TBMB) | 32 µg/mL (≈ 25.1 µM) | >256 µg/mL | 256 µg/mL (≈ 201 µM) | 256 µg/mL (≈ 201 µM) | 32 µg/mL (≈ 25.1 µM) | >256 µg/mL | 256 µg/mL (≈ 201 µM) |
| 32 µg/mL (≈ 30.9 µM) | >256 µg/mL | 64 µg/mL (≈ 61.8 µM) | 64 µg/mL (≈ 61.8 µM) | – | >256 µg/mL | >256 µg/mL | CC[C@@H](C)[C@@H](NC(=O)[C@@H](Cc1ccc(O)cc1)NC(=O)[C@H](N)Cc1c[nH]cn1)C(=O)N[C@H](CC(=O)O)C(=O)N[C@H](Cc1ccccc1)C(=O)N[C@H](CCCNC(=N)N)C(=O)N[C@H](Cc1c[nH]c2ccccc12)C(N)=O [P8, HYIDFRW] (H-[dH][dY][dI][dD][dF][dR][dW]-NH2) | – | – | – | – | – | – | – |
